From article PMC11602115 (Journal of Medicinal Chemistry, 2017) come the findings set out here.

One data set has as its target T1, human DP1 receptor (Homo sapiens, UniProt Q13258).
T1 construct: expressed in transfected cells
T1 sequence (Q13258 1-359): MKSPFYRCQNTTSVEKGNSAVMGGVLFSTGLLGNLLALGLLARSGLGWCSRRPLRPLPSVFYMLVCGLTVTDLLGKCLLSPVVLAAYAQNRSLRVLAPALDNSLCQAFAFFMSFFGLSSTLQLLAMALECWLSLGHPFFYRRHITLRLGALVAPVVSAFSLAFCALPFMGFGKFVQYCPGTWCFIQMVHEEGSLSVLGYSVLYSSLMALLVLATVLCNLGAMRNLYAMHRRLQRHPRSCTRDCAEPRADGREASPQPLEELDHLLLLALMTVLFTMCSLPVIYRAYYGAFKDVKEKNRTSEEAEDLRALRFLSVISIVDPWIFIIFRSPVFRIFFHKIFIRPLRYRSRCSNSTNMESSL
The data set can be described thus: HTRF cAMP assay, recombinant human DP1 receptor in CHO-K1 cells. In kind it is cell-based. As to conditions: for Emax: CHO-K1, intrinsic activity relative to 1 μM PGD2, read-out: hDP1 % IA; for EC50: HTRF (cAMP) human DP1 receptor assay, mean of at least three determinations, read-out: EC50 hDP1; for DP1 % I.A: cAMP HTRF agonist assay (Gs), Table Sup2.

Data set [1] can be described thus: Stability in rat microsome preparations. As to conditions: incubation at 37 °C, rat microsomes; read-out: rat MS, T1/2. The data set is classed as in vitro ADME. The source says:
Table 1 Screening Data for Selected Analogues ^a | column: human and rat MS, T1/2 (min) ^g

In a further data set the target is CYP 1A2 (Homo sapiens, UniProt P05177). The data set can be described thus: Cytochrome P450 inhibition, CYP1A2. The data set is classed as in vitro ADME.
Sequence of CYP 1A2 (P05177 whole entry): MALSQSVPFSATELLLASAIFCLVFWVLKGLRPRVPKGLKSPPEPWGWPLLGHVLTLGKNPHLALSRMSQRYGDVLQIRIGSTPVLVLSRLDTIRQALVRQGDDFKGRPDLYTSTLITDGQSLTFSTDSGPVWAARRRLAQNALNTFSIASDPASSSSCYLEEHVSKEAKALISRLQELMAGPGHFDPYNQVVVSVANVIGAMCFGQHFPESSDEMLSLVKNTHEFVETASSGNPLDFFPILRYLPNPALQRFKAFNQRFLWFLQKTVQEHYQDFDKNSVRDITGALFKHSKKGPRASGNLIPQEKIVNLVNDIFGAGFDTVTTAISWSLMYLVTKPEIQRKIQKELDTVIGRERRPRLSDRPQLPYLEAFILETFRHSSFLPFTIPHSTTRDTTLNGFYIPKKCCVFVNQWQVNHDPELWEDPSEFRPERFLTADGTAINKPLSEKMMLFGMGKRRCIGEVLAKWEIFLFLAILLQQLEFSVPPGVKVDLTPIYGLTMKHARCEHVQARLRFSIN
A further data set concerns the target CYP 2D6 (Homo sapiens, UniProt P10635). The data set can be described thus: Cytochrome P450 inhibition, CYP2D6. In kind it is in vitro ADME.
The target in a further data set is CYP 3A4 (Homo sapiens, UniProt P08684). The data set can be described thus: Cytochrome P450 inhibition, CYP3A4. The data set is classed as in vitro ADME.
Sequence of CYP 3A4 (P08684 whole entry): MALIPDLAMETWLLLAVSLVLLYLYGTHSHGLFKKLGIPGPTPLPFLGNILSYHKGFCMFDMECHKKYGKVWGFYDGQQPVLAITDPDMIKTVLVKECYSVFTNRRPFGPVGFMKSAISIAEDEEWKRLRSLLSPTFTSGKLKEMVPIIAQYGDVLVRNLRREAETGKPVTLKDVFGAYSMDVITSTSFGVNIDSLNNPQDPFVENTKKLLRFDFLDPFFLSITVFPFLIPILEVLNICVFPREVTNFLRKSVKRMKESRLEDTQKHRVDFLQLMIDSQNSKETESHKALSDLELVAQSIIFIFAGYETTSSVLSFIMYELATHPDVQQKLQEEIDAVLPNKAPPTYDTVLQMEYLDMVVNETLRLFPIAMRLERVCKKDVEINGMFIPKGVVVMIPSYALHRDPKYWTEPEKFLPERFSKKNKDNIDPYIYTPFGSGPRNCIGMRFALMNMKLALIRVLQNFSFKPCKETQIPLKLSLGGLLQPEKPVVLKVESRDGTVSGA
The target of another data set is CYP 2C8 (Homo sapiens, UniProt P10632). Kind of data set: Cytochrome P450 inhibition, CYP2C8. In kind it is in vitro ADME.
Sequence of CYP 2C8 (P10632 whole entry): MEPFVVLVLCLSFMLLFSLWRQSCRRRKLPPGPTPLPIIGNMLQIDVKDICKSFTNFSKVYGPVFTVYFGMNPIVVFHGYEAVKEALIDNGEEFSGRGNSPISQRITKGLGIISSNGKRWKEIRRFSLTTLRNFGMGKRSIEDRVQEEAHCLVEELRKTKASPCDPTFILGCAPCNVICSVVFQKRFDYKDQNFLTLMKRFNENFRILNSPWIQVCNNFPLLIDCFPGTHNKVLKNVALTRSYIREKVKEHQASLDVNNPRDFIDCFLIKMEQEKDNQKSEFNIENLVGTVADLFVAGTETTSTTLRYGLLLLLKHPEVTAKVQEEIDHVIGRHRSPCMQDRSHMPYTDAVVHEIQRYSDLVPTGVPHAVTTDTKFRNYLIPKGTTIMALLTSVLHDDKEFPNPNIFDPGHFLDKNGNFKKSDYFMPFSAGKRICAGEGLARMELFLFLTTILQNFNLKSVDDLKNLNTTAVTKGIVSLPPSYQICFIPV
Another data set can be described thus: Plasma protein binding. The data set is classed as in vitro ADME. As to conditions: across all species.
Data set [2] concerns primary human pulmonary arterial smooth muscle cells. The data set can be described thus: HTRF cAMP assay in primary human pulmonary arterial smooth muscle cells. The data set is classed as cell-based. How it is done:
Additional In Vitro Assays […]
Compounds were also evaluated in HTRF cAMP assays using primary human pulmonary arterial smooth muscle cells (Cell Applications, Inc., #352Kq05a, or ThermoFisher/Gibco, #C0095C) using the same basic assay protocol outlined in the Experimental section. Cells were cultured as recommended by the suppliers, used at low passage and seeded into 384qwell assay plates at a density of 700q900 cell per well
Background: In TR-FRET formats the signal depends on donor and acceptor labels being close together.

A further data set deals with EP2 (Homo sapiens, UniProt P43116). Kind of data set: Radioligand binding, EP2 ([3H]-PGE2). On the set-up: purchased MDS Pharma (Taiwan) and CEREP (France), contract assays. As to conditions: cloned human receptor; mean of two determinations. How it is done:
Additional (non-IP) receptor binding assays were carried out by MDS Pharma (Taiwan) and CEREP (France).

The target of the next data set is monkey IP. The data set can be described thus: Radioligand binding, monkey IP ([3H]-iloprost). How it is done: CHO-K1 cells expressing recombinant IP receptors were harvested, washed with ice-cold phosphate buffered saline, pH 7.4 (PBS), and then centrifuged at 48 000g for 20 min at 4 °C. The resulting cell pellet was then resuspended in ice-cold PBS containing 20 mM HEPES, pH 7.4, and 0.1 mM EDTA, homogenized on ice using a Brinkman Polytron, and centrifuged (48 000g for 20 min at 4 °C). This resuspension and centrifugation process was repeated one further time. Crude membrane pellets were stored at −80 °C until used for radioligand binding assays.
Assay incubations were terminated by rapid filtration through PerkinElmer GF/C filtration plates pretreated with 0.3% PEI, under vacuum pressure using a 96-well Packard filtration apparatus, followed by multiple washes with ice-cold wash buffer (PBS containing 20 mM HEPES and 0.1 mM EDTA, pH 7.4). Plates were then dried at 45 °C for a minimum of 2 h. Finally, 25 μL of BetaScint scintillation cocktail was added to each well and plates were counted in a Packard TopCount scintillation counter. In each competition study, test compounds were dosed at 10 concentrations with triplicate determinations at each test concentration.

[3] abbreviates: read-out: plasma protein binding.

Structures are written as SMILES. Where two headings read alike, the source gives them in different places. Bounds are passed on as bounds.

Sequence of CYP 2D6 (P10635 whole entry): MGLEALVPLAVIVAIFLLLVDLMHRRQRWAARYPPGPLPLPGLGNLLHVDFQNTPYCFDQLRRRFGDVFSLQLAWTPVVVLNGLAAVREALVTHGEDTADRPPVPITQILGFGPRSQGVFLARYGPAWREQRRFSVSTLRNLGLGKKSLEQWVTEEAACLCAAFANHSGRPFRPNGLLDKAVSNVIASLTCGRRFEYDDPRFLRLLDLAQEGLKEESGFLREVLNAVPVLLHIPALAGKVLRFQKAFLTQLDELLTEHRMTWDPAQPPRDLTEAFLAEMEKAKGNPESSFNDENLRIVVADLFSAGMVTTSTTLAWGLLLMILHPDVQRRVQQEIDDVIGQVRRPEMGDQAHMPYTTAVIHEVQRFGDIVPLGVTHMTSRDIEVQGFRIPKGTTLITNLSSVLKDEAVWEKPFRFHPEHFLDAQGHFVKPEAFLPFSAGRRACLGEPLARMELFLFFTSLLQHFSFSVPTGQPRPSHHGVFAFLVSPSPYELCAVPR
Sequence of EP2 (P43116 whole entry): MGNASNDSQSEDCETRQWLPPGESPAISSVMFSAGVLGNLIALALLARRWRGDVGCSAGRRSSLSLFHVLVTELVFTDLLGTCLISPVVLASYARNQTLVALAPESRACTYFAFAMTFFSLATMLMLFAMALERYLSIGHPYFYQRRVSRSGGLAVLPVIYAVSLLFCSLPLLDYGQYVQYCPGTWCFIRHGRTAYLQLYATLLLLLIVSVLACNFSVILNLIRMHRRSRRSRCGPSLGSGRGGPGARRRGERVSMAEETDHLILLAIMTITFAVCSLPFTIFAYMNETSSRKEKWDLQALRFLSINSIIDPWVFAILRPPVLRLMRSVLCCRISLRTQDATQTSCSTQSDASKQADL

Consider `O=C(O)COC[C@H]1CC[C@H](COC(=O)N(c2ccccc2)c2ccc(Cl)cc2)CC1` [5c, Sodium 2-(((1r,4r)-4-(((4-Chlorophenyl)(phenyl)carbamoyloxy)methyl)cyclohexyl)methoxy)acetate], for which, at human DP1 receptor, the Emax was determined as 52%. Further, the EC50 at human DP1 receptor was 850 nM. Further, the “DP1 % I.A” value on human DP1 receptor turned out to be 52%. For the same compound, the half-life in data set [1] was > 1 h. The IC50 at CYP 1A2, against CYP 2D6, on CYP 3A4 and against CYP 2C8 was > 50000 nM throughout. The fraction unbound in “Plasma protein binding” (read-out: free fraction) was 0.01; in the data set “Plasma protein binding” (setting [3]), ~0.01. Further, in data set [2], the “Efficacy (% vs. Iloprost) [95% CI], primary human PASMC cAMP” value was 65 [55, 75] %. For the same compound, the Ki on EP2 was 610 nM.

Consider `O=C(O)COC[C@H]1CC[C@H](COC(=O)N(c2ccccc2)c2cccc(F)c2)CC1` [5g, 2-(((1r,4r)-4-(((3-Fluorophenyl)(phenyl)carbamoyloxy)methyl)cyclohexyl)methoxy)acetic Acid], for which the Emax on human DP1 receptor was 61%. In addition, the EC50 on human DP1 receptor came out at 2760 nM. In [1], the half-life is > 1 h. Moreover, the Ki on monkey IP was determined as 2.6 nM; on EP2, 570 nM. Further, the IC50 at CYP 1A2, at CYP 2D6, at CYP 3A4 and on CYP 2C8 was > 50000 nM throughout. Besides, the fraction unbound is 0.01 in “Plasma protein binding” (read-out: free fraction) and ~0.01 in the data set “Plasma protein binding” (setting [3]).

For `CC#CCC(C)[C@H](O)/C=C/[C@@H]1[C@H]2C/C(=C/CCCC(=O)O)C[C@H]2C[C@H]1O` (some centres unmarked) [iloprost], on human DP1 receptor, the Emax amounted to 42%, the EC50 was found to be 147 nM and the “DP1 % I.A” value is 42%. The compound also had a Ki on monkey IP of 1.6 nM. Moreover, the “Efficacy (% vs. Iloprost) [95% CI], primary human PASMC cAMP” value in data set [2] was determined as 100%. In addition, the EC50 in [2] (Homo sapiens, PASMC, n = 8, read-out: EC50 [95% CI], primary human PASMC cAMP) was determined as 2.9 nM.

As a reminder, the EC50 is the concentration needed to bring the measured effect to its halfway point. For orientation: IC50 means the point on the concentration scale where inhibition reaches its midpoint. One may read the Ki as a dissociation constant, usually derived from enzyme kinetics or from competition with a known ligand.
